PubChem BioAssay (NCI)
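These data come from cells grown in 96-well plates and exposed to compound for 48 hours at five concentrations. TGI is the concentration that stops growth completely.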

Legend:
Experiment in all cases: NCI tumour cell line growth inhibition, 48 h
OVCAR-5 ovarian = system: OVCAR-5 ovarian
CAKI-1 renal = system: CAKI-1 renal
RPMI-8226 leukemia = system: RPMI-8226 leukemia
SF-268 CNS = system: SF-268 CNS
KM20L2 colon = system: KM20L2 colon
SW-620 colon = system: SW-620 colon
UO-31 renal = system: UO-31 renal
COLO 205 colon = system: COLO 205 colon
SK-MEL-28 melanoma = system: SK-MEL-28 melanoma
K-562 leukemia = system: K-562 leukemia
SF-539 CNS = system: SF-539 CNS
SNB-78 CNS = system: SNB-78 CNS
NCI-H460 lung = system: NCI-H460 lung
SK-MEL-5 melanoma = system: SK-MEL-5 melanoma
U251 CNS = system: U251 CNS
MOLT-4 leukemia = system: MOLT-4 leukemia
M19-MEL melanoma = system: M19-MEL melanoma
HCT-116 colon = system: HCT-116 colon
RXF 393 renal = system: RXF 393 renal
HT29 colon = system: HT29 colon
EKVX NSCLC = system: EKVX NSCLC
HOP-18 NSCLC = system: HOP-18 NSCLC
SNB-75 CNS = system: SNB-75 CNS
M14 melanoma = system: M14 melanoma
KM12 colon = system: KM12 colon
SN12C renal = system: SN12C renal
OVCAR-3 ovarian = system: OVCAR-3 ovarian
SF-295 CNS = system: SF-295 CNS
HCC-2998 colon = system: HCC-2998 colon
DLD-1 colon = system: DLD-1 colon
TK-10 renal = system: TK-10 renal
HCT-15 colon = system: HCT-15 colon
CCRF-CEM leukemia = system: CCRF-CEM leukemia
SK-OV-3 ovarian = system: SK-OV-3 ovarian
MALME-3M melanoma = system: MALME-3M melanoma
SK-MEL-2 melanoma = system: SK-MEL-2 melanoma
DMS 273 small cell lung = system: DMS 273 small cell lung
NCI-H23 lung = system: NCI-H23 lung
OVCAR-8 ovarian = system: OVCAR-8 ovarian
A498 renal = system: A498 renal
NCI-H226 lung = system: NCI-H226 lung
SNB-19 CNS = system: SNB-19 CNS
ACHN renal = system: ACHN renal
UACC-62 melanoma = system: UACC-62 melanoma
786-0 renal = system: 786-0 renal
IGROV1 ovarian = system: IGROV1 ovarian
HL-60(TB) leukemia = system: HL-60(TB) leukemia
OVCAR-4 ovarian = system: OVCAR-4 ovarian
A549 NSCLC = system: A549 NSCLC
LOX IMVI melanoma = system: LOX IMVI melanoma
LXFL 529 NSCLC = system: LXFL 529 NSCLC
UACC-257 melanoma = system: UACC-257 melanoma
HOP-62 NSCLC = system: HOP-62 NSCLC
XF 498 CNS = system: XF 498 CNS
DMS 114 small cell lung = system: DMS 114 small cell lung
RXF-631 renal = system: RXF-631 renal

Measured: TGI

NNC(=O)C(=O)N/N=C1\CCC(=O)CC1C(=O)CCC(=O)Nc1ccc(Cl)cc1 (configuration not stated)
not listed: HOP-62 NSCLC | XF 498 CNS | DMS 114 small cell lung | RXF-631 renal
> 100 µM: all other assays above

Cc1ccc(S(=O)(=O)c2ccccc2[N+](=O)[O-])cc1
not listed: SF-268 CNS | COLO 205 colon | HOP-18 NSCLC | SN12C renal | SNB-19 CNS | LOX IMVI melanoma
> 100 µM: all other assays above
